This is an account of results in ChEMBL document CHEMBL3580576, “Eremophilane Sesquiterpenes and Diphenyl Thioethers from the Soil Fungus Penicillium copticola PSU-RSPG138” (J Nat Prod, 2015).

The structures appear in SMILES notation. pIC50: −log10 of the molar value. Values after ≈ are worked out from the molar mass of the structure shown. Active and inactive are the calls of the source. The rule behind the calls is not given here.

One may read the pIC50 as the IC50 on a negative log10 scale, so that one unit is a factor of ten. The term MIC denotes the lowest concentration found to suppress growth.

The test system of one assay is Plasmodium falciparum. Nature of the assay: Antimalarial activity against multidrug-resistant Plasmodium falciparum K1 assessed as reduction in parasite growth incubated for 24 hrs by [3H]hypoxanthine incorporation based microculture radioisotope technique based method. It is filed as functional, organism-based. The following applies: for pIC50: Plasmodium falciparum, K1, read-out: IC50.

In the next assay the test system is Vero. Kind of assay: Cytotoxicity against African green monkey Vero cells assessed as reduction in cell growth incubated at 37 degC for 4 days by fluorescence based assay. As to conditions: Chlorocebus sabaeus, 96 h.
Another assay relates to MCF7. Nature of the assay: Antiproliferative activity against human MCF7 cells assessed as reduction in cell growth incubated at 37 degC for 3 days by resazurin microplate assay. Format: functional, cell-based. As to conditions: for IC50: mcf7; for pIC50: Homo sapiens, MCF7, 72 h, read-out: IC50. For orientation: Resazurin is reduced to fluorescent resorufin, in cell work by metabolically active cells.

A further assay relates to KB. Nature of the assay: Antiproliferative activity against human KB cells assessed as reduction in cell growth incubated at 37 degC for 3 days by resazurin microplate assay. It is filed as functional, cell-based. The following applies: for IC50: kb; for pIC50: Homo sapiens, KB, 72 h, read-out: IC50.
Assay [1] has as its system Mycobacterium tuberculosis. Nature of the assay: Antimycobacterial activity against GFP expressing Mycobacterium tuberculosis H37Ra assessed as microbial growth inhibition incubated at 37 degC for 7 days by fluorescence based assay. It is filed as functional.

For `C[C@H]1[C@@H](O)O[C@@H]2O[C@@]3(C)CC[C@H]4[C@H](C)CC[C@@H]1[C@@]24OO3` [ARTENIMOL], the pIC50 in the assay on Plasmodium falciparum is 8.90.

As to `C=C(CO)[C@@H]1C[C@@]2(C)C(=CC1=O)CC[C@@H](O)[C@@H]2C`, the IC50 entry in the assay with Plasmodium falciparum, in the assay with MCF7 and in the assay with KB was “Not Active” each time. For the same compound, the negative logarithm of the IC50 (pIC50) in the assay on Vero is 4.25. Further, in assay [1], the MIC entry is “inactive”.

Consider `C=C(CO)[C@@]12O[C@@H]1[C@@]1(C)C(=CC2=O)CC[C@@H](O)[C@@H]1C`, for which the pIC50 was 5.27 in the assay with Plasmodium falciparum, 5.22 in the assay with Vero and 4.50 in the assay with KB. The IC50 result with MCF7 is “Not Active”. For the same compound, the MIC entry in assay [1] is “inactive”.

With `NNC(=O)c1ccncc1` [ISONIAZID], the minimum inhibitory concentration (MIC) in assay [1] (168 h) came to 0.094 µg/mL (≈ 0.685 µM).

Consider `COc1cccc2c1C(=O)c1c(O)c3c(c(O)c1C2=O)C[C@@](O)(C(=O)CO)C[C@@H]3O[C@H]1C[C@H](N)[C@H](O)[C@H](C)O1` [DOXORUBICIN], for which the pIC50 with MCF7 is 4.94; with KB, 6.04.

In the case of `C=C(C)[C@@]12O[C@@H]1[C@@]1(C)C(=CC2=O)CC[C@@H](OC(=O)Cc2ccc(O)c(Cl)c2)[C@@H]1C`, the pIC50 in the assay on Plasmodium falciparum is 5.46; in the assay with Vero, 4.68; with MCF7, 4.40; in the assay with KB, 4.24. The minimum inhibitory concentration (MIC) in assay [1] (168 h) came out at 50 µg/mL (≈ 120 µM).

Take `C=C(C)C1=C[C@@]2(C)C(=CC1=O)CC[C@@H](O)[C@@H]2C`: the pIC50 in the assay with Plasmodium falciparum was 4.80; in the assay on Vero, 4.46. Further, the IC50 result in the assay with MCF7 and with KB was “Not Active” each time. The MIC entry in assay [1] was “inactive”.

In the case of `C=C(C)[C@@H]1C[C@@]2(C)C(=CC1=O)CC[C@@H](O)[C@@H]2C`, the negative-log IC50 (pIC50) is 4.41 with Plasmodium falciparum, 4.35 with Vero and 3.73 with KB. Moreover, the IC50 result in the assay with MCF7 is recorded as “Not Active”. Besides, the MIC result in assay [1] is “inactive”.

In the case of `C=C(C)[C@@]12O[C@@H]1[C@@]1(C)C(=C[C@@H]2O)CC[C@@H](O)[C@@H]1C`, the IC50 entry in the assay on Plasmodium falciparum, in the assay with MCF7 and with KB was “Not Active” in each case. Also, the pIC50 in the assay with Vero is 4.62. Further, the MIC result in assay [1] is “inactive”.

As to `C=C(C)[C@@]12O[C@@H]1[C@@]1(C)C(=CC2=O)CC[C@@H](OC(C)=O)[C@@H]1C`, the pIC50 was 5.34 in the assay with Plasmodium falciparum, 5.12 in the assay with Vero and 4.45 with KB. Moreover, the IC50 result with MCF7 is reported as “Not Active”. In addition, in assay [1], the MIC entry is “inactive”.

On to `Cc1c2ccncc2c(C)c2c1[nH]c1ccccc12` [ELLIPTECINE], for which the pIC50 in the assay on Vero is 5.42; in the assay with KB it was 5.70.

As to `CC1COc2c(N3CCN(C)CC3)c(F)cc3c(=O)c(C(=O)O)cn1c23` (stereo unspecified) [OFLOXACIN], the MIC in assay [1] (168 h) is 0.391 µg/mL (≈ 1.08 µM).

In the case of `C=C(C)[C@@]12O[C@@H]1[C@@]1(C)C(=CC2=O)CC[C@@H](O)[C@@H]1C`, the figures for the pIC50 with Plasmodium falciparum, with Vero and with KB were 5.82, 5.37 and 4.75, respectively. Moreover, in the assay on MCF7, the IC50 entry was “Not Active”. Also, the MIC entry in assay [1] was “inactive”.

Take `CC[C@@H](CO)NCCN[C@@H](CC)CO` [ETHAMBUTOL]: in assay [1] (168 h), the minimum inhibitory concentration (MIC) worked out at 0.983 µg/mL (≈ 4.81 µM).

As for `CC/C(=C(\c1ccccc1)c1ccc(OCCN(C)C)cc1)c1ccccc1` [TAMOXIFEN], in the assay on MCF7, the pIC50 was 4.73.

Turning to `CO[C@H]1/C=C/O[C@@]2(C)Oc3c(C)c(O)c4c(O)c(c(/C=N/N5CCN(C)CC5)c(O)c4c3C2=O)NC(=O)/C(C)=C\C=C\[C@H](C)[C@H](O)[C@@H](C)[C@@H](O)[C@@H](C)[C@H](OC(C)=O)[C@@H]1C` [RIFAMPIN], the MIC in assay [1] (168 h) stood at 0.025 µg/mL (≈ 0.0304 µM).

With `CN[C@@H]1[C@H](O[C@H]2[C@H](O[C@H]3[C@H](O)[C@@H](O)[C@H](N=C(N)N)[C@@H](O)[C@@H]3N=C(N)N)O[C@@H](C)[C@]2(O)C=O)O[C@@H](CO)[C@H](O)[C@H]1O` [STREPTOMYCIN], in assay [1] (168 h), the MIC turned out to be 0.625 µg/mL (≈ 1.07 µM).
